Assay results taken from PubChem BioAssay AID2060490 (Molecular Pharmacology Branch, DTP, NCI, 2025).

Tested on: 885512-296-R-J2-PDC complex spheroid viability
Experiment: Anticancer human tumor 885512-296-R-J2-PDC patient-derived breast carcinoma cell line growth inhibition [GQUAD]
Conditions: for IC50: curve of first compound; for viability, T/C: stronger effect = lower value
Summary of the method: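 Multi-cell-type spheroids of tumor cells with HUVEC and mesenchymal stem cells, treated with drug combinations. Concentrations descend in half-log steps from near clinical Cmax, or from 10 microM where Cmax is unknown; viability read-out.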

[1] = second compound 0.0316 µM, first compound 0.0316 µM
[2] = second compound 0.0316 µM, first compound 0.1 µM
[3] = second compound 0.0316 µM, first compound 0.316 µM
[4] = second compound 0.0316 µM, first compound 1 µM
[5] = second compound 0.0316 µM, first compound 3.16 µM
[6] = second compound 0.0316 µM, first compound 10 µM
[7] = second compound 0.1 µM, first compound 0.0316 µM
[8] = second compound 0.1 µM, first compound 0.1 µM
[9] = second compound 0.1 µM, first compound 0.316 µM
[10] = second compound 0.1 µM, first compound 1 µM
[11] = second compound 0.1 µM, first compound 3.16 µM
[12] = second compound 0.1 µM, first compound 10 µM
[13] = second compound 0.316 µM, first compound 0.0316 µM
[14] = second compound 0.316 µM, first compound 0.1 µM
[15] = second compound 0.316 µM, first compound 0.316 µM
[16] = second compound 0.316 µM, first compound 1 µM
[17] = second compound 0.316 µM, first compound 3.16 µM
[18] = second compound 0.316 µM, first compound 10 µM
[19] = second compound 1 µM, first compound 0.0316 µM
[20] = second compound 1 µM, first compound 0.1 µM
[21] = second compound 1 µM, first compound 0.316 µM
[22] = second compound 1 µM, first compound 1 µM
[23] = second compound 1 µM, first compound 3.16 µM
[24] = second compound 1 µM, first compound 10 µM
[25] = second compound 3.16 µM, first compound 0.0316 µM
[26] = second compound 3.16 µM, first compound 0.1 µM
[27] = second compound 3.16 µM, first compound 0.316 µM
[28] = second compound 3.16 µM, first compound 1 µM
[29] = second compound 3.16 µM, first compound 3.16 µM
[30] = second compound 3.16 µM, first compound 10 µM
[31] = second compound 10 µM, first compound 0.0316 µM
[32] = second compound 10 µM, first compound 0.1 µM
[33] = second compound 10 µM, first compound 0.316 µM
[34] = second compound 10 µM, first compound 1 µM
[35] = second compound 10 µM, first compound 3.16 µM
[36] = second compound 10 µM, first compound 10 µM
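Also: spheroids exposed to the compounds for one week.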
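For viability, T/C in this document: percent of tumor spheroid viability relative to DMSO vehicle control wells.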

CC(C)n1c(=O)n(C)c2cnc3cc(F)c(-c4ccc(OCCCN5CCCCC5)nc4)cc3c21 + CN(C)c1ccc(Nc2c3ccc(NC(=O)CCN4CCCC4)cc3nc3cc(NC(=O)CCN4CCCC4)ccc23)cc1 showed an IC50 (second compound 0.0316 µM) greater than 10 µM, an IC50 (second compound 0.1 µM) greater than 10 µM and an IC50 (second compound 0.316 µM) greater than 10 µM. It also gave an IC50 (second compound 1 µM) greater than 10 µM, an IC50 (second compound 3.16 µM) of 0.654 µM and an IC50 (second compound 10 µM) of less than 0.0316 µM. For the same molecule, the viability, T/C [1] was 89.9%, the viability, T/C [2] was 81.4% and the viability, T/C [3] was 97.1%. For the same molecule, the viability, T/C [4] was 84.5%, the viability, T/C [5] was 118% and the viability, T/C [6] was 98.2%. For the same molecule, the viability, T/C [7] was 81.3%, the viability, T/C [8] was 87.5% and the viability, T/C [9] was 82.2%. It also gave a viability, T/C [10] of 95.7%, a viability, T/C [11] of 108% and a viability, T/C [12] of 72.4%. It also gave a viability, T/C [13] of 83.4%, a viability, T/C [14] of 69.8% and a viability, T/C [15] of 84.3%. It also gave a viability, T/C [16] of 92.9%, a viability, T/C [17] of 118% and a viability, T/C [18] of 78.6%. It also gave a viability, T/C [19] of 84%, a viability, T/C [20] of 86.3% and a viability, T/C [21] of 94.5%. For the same molecule, the viability, T/C [22] was 87.9%, the viability, T/C [23] was 94.8% and the viability, T/C [24] was 54.3%. It also gave a viability, T/C [25] of 75.3%, a viability, T/C [26] of 70.4% and a viability, T/C [27] of 52%. It also gave a viability, T/C [28] of 47.5%, a viability, T/C [29] of 35.4% and a viability, T/C [30] of 18.8%. For the same molecule, the viability, T/C [31] was 16.4%, the viability, T/C [32] was 14.6% and the viability, T/C [33] was 13.3%. The viability, T/C [34] was 10.1%, the viability, T/C [35] was 9.73% and the viability, T/C [36] was 2.68%.
CC1COCCN1c1cc(C2(O)CC3CCC(C2)O3)c2cnn(-c3ccn[nH]3)c2n1 (stereo not drawn) + CN(C)c1ccc(Nc2c3ccc(NC(=O)CCN4CCCC4)cc3nc3cc(NC(=O)CCN4CCCC4)ccc23)cc1 showed an IC50 (second compound 0.0316 µM) of less than 0.0316 µM, an IC50 (second compound 0.1 µM) of less than 0.0316 µM and an IC50 (second compound 0.316 µM) of less than 0.0316 µM. The IC50 (second compound 1 µM) was less than 0.0316 µM, the IC50 (second compound 3.16 µM) was less than 0.0316 µM and the IC50 (second compound 10 µM) was less than 0.0316 µM. It also gave a viability, T/C [1] of 25.4%, a viability, T/C [2] of 5.25% and a viability, T/C [3] of 3.07%. For the same molecule, the viability, T/C [4] was 5.38%, the viability, T/C [5] was 6.51% and the viability, T/C [6] was 7.85%. It also gave a viability, T/C [7] of 30%, a viability, T/C [8] of 5.86% and a viability, T/C [9] of 3.33%. For the same molecule, the viability, T/C [10] was 4.56%, the viability, T/C [11] was 7.53% and the viability, T/C [12] was 8.91%. It also gave a viability, T/C [13] of 22.3%, a viability, T/C [14] of 6.08% and a viability, T/C [15] of 5.15%. It also gave a viability, T/C [16] of 4.96%, a viability, T/C [17] of 6.17% and a viability, T/C [18] of 8.92%. It also gave a viability, T/C [19] of 29.2%, a viability, T/C [20] of 3.86% and a viability, T/C [21] of 4.06%. The viability, T/C [22] was 4.6%, the viability, T/C [23] was 6.32% and the viability, T/C [24] was 7.75%. The viability, T/C [25] was 18.8%, the viability, T/C [26] was 5.47% and the viability, T/C [27] was 3.21%. For the same molecule, the viability, T/C [28] was 4.64%, the viability, T/C [29] was 6.84% and the viability, T/C [30] was 6.31%. The viability, T/C [31] was 12.7%, the viability, T/C [32] was 4.76% and the viability, T/C [33] was 4.43%. It also gave a viability, T/C [34] of 2.68%, a viability, T/C [35] of 3.3% and a viability, T/C [36] of 1.22%.
Work on O=C(c1cc(Cc2n[nH]c(=O)c3ccccc23)ccc1F)N1CCN(C(=O)C2CC2)CC1 + CN(C)c1ccc(Nc2c3ccc(NC(=O)CCN4CCCC4)cc3nc3cc(NC(=O)CCN4CCCC4)ccc23)cc1 yielded an IC50 (second compound 0.0316 µM) of 7.62 µM, an IC50 (second compound 0.1 µM) of 7.9 µM and an IC50 (second compound 0.316 µM) of 7.33 µM. The IC50 (second compound 1 µM) was 7.31 µM, the IC50 (second compound 3.16 µM) was 5.34 µM and the IC50 (second compound 10 µM) was less than 0.0316 µM. The viability, T/C [1] was 105%, the viability, T/C [2] was 103% and the viability, T/C [3] was 132%. The viability, T/C [4] was 139%, the viability, T/C [5] was 117% and the viability, T/C [6] was 29.2%. It also gave a viability, T/C [7] of 102%, a viability, T/C [8] of 94.9% and a viability, T/C [9] of 119%. The viability, T/C [10] was 145%, the viability, T/C [11] was 120% and the viability, T/C [12] was 33%. The viability, T/C [13] was 93.7%, the viability, T/C [14] was 110% and the viability, T/C [15] was 118%. The viability, T/C [16] was 131%, the viability, T/C [17] was 123% and the viability, T/C [18] was 25.7%. The viability, T/C [19] was 85.2%, the viability, T/C [20] was 102% and the viability, T/C [21] was 116%. The viability, T/C [22] was 152%, the viability, T/C [23] was 105% and the viability, T/C [24] was 29.1%. For the same molecule, the viability, T/C [25] was 95%, the viability, T/C [26] was 107% and the viability, T/C [27] was 125%. It also gave a viability, T/C [28] of 107%, a viability, T/C [29] of 67.8% and a viability, T/C [30] of 28.7%. The viability, T/C [31] was 20.7%, the viability, T/C [32] was 23.3% and the viability, T/C [33] was 20.1%. For the same molecule, the viability, T/C [34] was 19.2%, the viability, T/C [35] was 20.8% and the viability, T/C [36] was 15.8%.
With COc1ncnc(C2CC2)c1-c1ncc2cnn(Cc3ccc(-c4nc(C(F)(F)F)cn4C(C)C)cc3)c2n1 + CN(C)c1ccc(Nc2c3ccc(NC(=O)CCN4CCCC4)cc3nc3cc(NC(=O)CCN4CCCC4)ccc23)cc1 the IC50 (second compound 0.0316 µM) was greater than 10 µM, the IC50 (second compound 0.1 µM) was greater than 10 µM and the IC50 (second compound 0.316 µM) was greater than 10 µM. It also gave an IC50 (second compound 1 µM) greater than 10 µM, an IC50 (second compound 3.16 µM) greater than 10 µM and an IC50 (second compound 10 µM) of less than 0.0316 µM. It also gave a viability, T/C [1] of 107%, a viability, T/C [2] of 102% and a viability, T/C [3] of 93.3%. The viability, T/C [4] was 104%, the viability, T/C [5] was 100% and the viability, T/C [6] was 92.3%. For the same molecule, the viability, T/C [7] was 103%, the viability, T/C [8] was 103% and the viability, T/C [9] was 97.3%. For the same molecule, the viability, T/C [10] was 93.6%, the viability, T/C [11] was 92.5% and the viability, T/C [12] was 81.4%. It also gave a viability, T/C [13] of 105%, a viability, T/C [14] of 108% and a viability, T/C [15] of 103%. It also gave a viability, T/C [16] of 103%, a viability, T/C [17] of 104% and a viability, T/C [18] of 85.8%. The viability, T/C [19] was 95%, the viability, T/C [20] was 97.2% and the viability, T/C [21] was 103%. It also gave a viability, T/C [22] of 91%, a viability, T/C [23] of 101% and a viability, T/C [24] of 87.4%. For the same molecule, the viability, T/C [25] was 99.4%, the viability, T/C [26] was 107% and the viability, T/C [27] was 106%. It also gave a viability, T/C [28] of 83.9%, a viability, T/C [29] of 81.3% and a viability, T/C [30] of 50.3%. The viability, T/C [31] was 28.5%, the viability, T/C [32] was 18.7% and the viability, T/C [33] was 16.4%. For the same molecule, the viability, T/C [34] was 15.3%, the viability, T/C [35] was 11.9% and the viability, T/C [36] was 5.91%.
